According to ChEMBL document CHEMBL5137105, “Tricyclic Carboxamide Derivatives as PRMT5 Inhibitors for Treating Cancer” (ACS Med Chem Lett, 2022):

test: Antiproliferative activity against human HCT116-MTAP null cells assessed as reduction in cell viability incubated for 6 days by CellTiter-Glo luminescent assay; format: functional, cell-based; details: 144 h

With `Cn1cc(N(Cc2ccc(C(F)(F)F)cn2)C(=O)c2cc3c4c(c(N)nc3cc2Cl)COC4)cn1` as the compound, how does the IC50 read?
Its IC50 is 6 nM.

Which IC50 does the source give for `C[C@H](c1ncccn1)N(Cc1ccc(C(F)(F)F)cn1)C(=O)c1ccc2nc(N)c3c(c2c1)CCC3` here?
The IC50 was 6 nM.

With `Cn1ncc2c(N)nc3cc(F)c(C(=O)N(Cc4ccc(C(F)(F)F)cn4)C4CCC4)cc3c21` as the compound, how does the IC50 read?
The IC50 was 5 nM.

For `C[C@H](c1ncccn1)N(Cc1ccc(C#N)c(Cl)n1)C(=O)c1ccc2nc(N)c3c(c2c1)COC3`, which IC50 is on record?
The IC50 was 5 nM.

Which IC50 does the source give for `Cn1cc(N(Cc2ccc(C(F)(F)F)cn2)C(=O)c2cc3c(cc2F)nc(N)c2cnn(C)c23)cn1` here?
The IC50 was 5 nM.

For `CC1OCc2c1c(N)nc1ccc(C(=O)N(Cc3ccc(C(F)(F)F)cn3)Cc3ccnc4[nH]ccc34)cc21` (stereo unspecified), which IC50 is on record?
Its IC50 is 6 nM.
